The source of these data is the METLIN SMRT retention time set (Domingo-Almenara et al. 2019).

A short description of the data set: gradient 5% acetonitrile 3 min, to 50% in 2 min, to 85% in 15 min, held 3 min, 100 µL/min. Particulars: column: Zorbax Extend-C18 2.1 x 50 mm; eluents: water / acetonitrile, 0.1% formic acid. Summed up:
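The system's dead and dwell volumes were 40 μL and 900 μL, with a Zorbax Extend-C18 column (2.1 × 50 mm, 1.8 μm) run at 100 μL/min in water and acetonitrile containing 0.1% formic acid each. Pure standards were analyzed in mixtures of ~100 molecules by HPLC–quadrupole time-of-flight mass spectrometry in positive and negative ionization mode. Retention time was assigned from computationally picked, manually inspected adduct peaks.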
Turning to `CCn1nccc1-c1cccc(-c2noc(CNC(=O)Cc3ccc(Cl)cc3)n2)c1`, the RP-LC retention time came out at 922 s.
Next, `O=C1CCCN1Cc1noc(-c2ccccc2Cl)n1`: 770 s; `CC1(C(=O)NCc2ccccc2)Cn2c(ccc2-c2ccco2)C(=O)N1C1CC1` (centres undefined): 810 s; `Cc1nc(OCC(=O)Nc2c(C)cccc2C)c2ccccc2n1`: 756 s.
For `CCc1ccc(-c2cc3c(=O)n(Cc4noc(CN5CCOCC5)n4)ccn3n2)cc1`, the RP-LC retention time is 813 s.
With `COC(=O)c1cc(S(=O)(=O)N2CCCC2C(=O)Nc2ccc(OC)cc2)cn1C` (centres undefined) the figure was 818 s; with `CCn1ccc2sc(C)c(C(=O)NCc3ccc(C)cc3)c2c1=O`, 850 s.
Next, `O=S(=O)(NCc1ccc(F)cc1)c1ccccc1-c1nc(-c2ccc(F)cc2)no1`: 1180 s; `Cn1c(C(=O)NCc2cc(F)ccc2F)cc2ccncc21`: 622 s.
With `O=C(NC(C(=O)N1CCCc2ccccc21)c1ccccc1)C1CC(=O)N(c2ccccc2)C1` (centres undefined) the figure was 951 s; with `COC(=O)c1ccc(Cn2cnc3c(Cl)ncnc32)cc1`, 790 s.
In turn, `Cc1[nH]c(C)c(S(=O)(=O)N2CCC(C(=O)NC(C)(C)C)CC2)c1C(=O)N1CCCCC1` returned an RP-LC retention time of 710 s.
Next, `CN(C)c1ccc(CCNC(=O)C(=O)NCc2ccc3c(c2)OCO3)cc1`: 577 s; `CCOC1CCN(C(=O)Nc2ccccc2C)CC1`: 732 s; `COc1ccc(NC(=O)N2C[C@H]3C[C@H](C2)[C@H]2CCCC(=O)N2C3)cc1`: 620 s.
In the case of `CC(C)NC(=O)c1cc2c(n(-c3ccc(C(F)(F)F)cc3)c1=O)CCCC2=O`, the RP-LC retention time came to 883 s.
As for `CC(Oc1ccc(Cl)cc1)C(=O)NCC1CCOCC1` (centres undefined), the RP-LC retention time came to 782 s.
With `Cc1ccc(N2C(=O)C3N=NN(c4ccc(C)c(Cl)c4)C3C2=O)cc1F` (centres undefined) the figure was 836 s; with `CCc1ccc(CNC(=O)CCC2CCCN(S(=O)(=O)c3ccccc3C)C2)cc1` (centres undefined), 1070 s; with `Cc1ccc(C)c(-c2nc(NC(=O)c3cc(C)on3)sc2C)c1`, 1110 s.
With `COc1cc(-c2nc3ncccn3c2Nc2cccc(C)c2)ccc1O` the figure was 647 s; with `C/C(=C\c1csc(C)n1)[C@@H]1C[C@@H]2O[C@]2(C)CCC[C@H](C)[C@H](O)[C@@H](C)C(=O)C(C)(C)[C@@H](O)CC(=O)N1`, 707 s.
Next, `C=CCN(CC=C)S(=O)(=O)c1ccc(C(=O)N2CCCc3ccccc32)cc1`: 985 s; `CN1C(=O)[C@H]2CN(Cc3ccccc3Cl)C[C@H]2C1=O`: 600 s; `COc1ccc(S(=O)(=O)N2CCCN(c3ccc(=O)n(-c4ccc(C)c(C)c4)n3)CC2)cc1`: 903 s.
Consider `O=C(NCCC1CCN(C(=O)Nc2cc(F)ccc2F)CC1)C1CC1`, for which the RP-LC retention time came to 715 s.
Next, `CCCNC(=O)C1CCN(c2ccc(SCC(=O)Nc3ccc(F)cc3Cl)nn2)CC1`: 682 s; `Cc1ccc(NC(=O)N2CCc3nc(-c4ccccc4)ncc3C2)cc1F`: 988 s.
With `O=C(NCCn1cc(SCC(=O)N2CCOCC2)c2ccccc21)c1ccc(F)cc1` the figure was 733 s.
With `O=C(O)c1cc(-c2ccccc2F)n[nH]1` the figure was 630 s; with `COc1ccc(-c2nc(-c3cn(-c4ccc(F)cc4)nn3)no2)c(OC)c1`, 974 s.
`COC(=O)c1cc(S(=O)(=O)N2CCCC2C(=O)Nc2ccc(Cl)cc2C)cn1C` (centres undefined) came in with an RP-LC retention time of 958 s.
In the case of `CCOc1ccc(NC(=O)Nc2nccn(-c3ccc(Br)cc3)c2=O)cc1`, the RP-LC retention time is 1040 s.
With `CCOc1cccc(CNc2c(C(=O)OC)c(=O)[nH]c3c(Cl)cccc23)c1` the figure was 873 s; with `CCOC(=O)c1ccc(Nc2c(-c3ccc(N(C)C)cc3)nc3cnccn23)cc1`, 827 s; with `COc1ccccc1N1CCN(CCCCN2C(=O)CCC2=O)CC1`, 650 s.
With `CCC(=O)NCc1nc2c(n1C)CN(S(=O)(=O)c1c(C)c(C)cc(C)c1C)CC2` the figure was 556 s; with `Cc1nn(C)c2nc(OCC(=O)Nc3ccccc3Cl)cc(C(F)(F)F)c12`, 1130 s; with `Cc1ccccc1CNC(=O)CCC1CCN(c2cc(NC3CC3)ncn2)CC1`, 585 s.
Next, `Cc1noc(C)c1Cc1c(C(=O)NCCn2c(C)cnc2C)noc1C`: 601 s; `Cc1cc(C)cc(NC(=O)N2CCN(c3cc(-c4cccnc4)[nH]n3)CC2)c1`: 644 s; `O=C(NCCc1ccc(Cl)cc1)c1csc(C(=O)N2CCCC2)n1`: 894 s.
Regarding `Cc1oc(-c2[nH]ncc2C(=O)N2CCCCC2)cc1S(=O)(=O)Nc1cccc(F)c1`, the RP-LC retention time is 710 s.
As to `Cc1nc2ncc(-c3ccnc(N4CCN(Cc5ccccc5)CC4)n3)c(C)n2n1`, the RP-LC retention time is 604 s.
As for `COc1cccc(Cn2c(C(=O)N3CCC(C(=O)NC4CCCCC4)CC3)cc3ccsc32)c1`, the RP-LC retention time was determined as 1000 s.
With `O=c1n(CC2CC2)c2cccnc2n1[C@H]1CCCN(S(=O)(=O)c2cccnc2)C1` the figure was 835 s; with `CCCn1c(=O)c(C)nc2cc(-c3noc(-c4cc(OC)c(OC)c(OC)c4)n3)ccc21`, 1110 s.
Next, `Cc1ccc(Cl)cc1NC(=O)N1CCCC1c1nc(-c2ccccc2C)no1` (centres undefined): 1120 s.
For `Cc1cccc(-n2nnc(C(=O)O)c2-c2ccncc2)c1`, the RP-LC retention time amounted to 620 s.
Compound `COCCn1ncc(N2CCC(C(=O)Nc3cc(OC)cc(OC)c3)C2)cc1=O` (centres undefined) came in with an RP-LC retention time of 684 s.
Compound `Nc1ncnc(NCc2ccco2)c1[N+](=O)[O-]` displayed an RP-LC retention time of 643 s.
Next, `CCc1nc(-c2cc(S(=O)(=O)N3CCC(C(=O)N(CC)CC)CC3)c(C)s2)no1`: 960 s.
With `Cc1ccc(CNC(=O)c2nc3cccnc3n(CC(C)C)c2=O)cc1C` the figure was 1010 s; with `CCc1nn(CC(=O)N2CCC(C(N)=O)CC2)c(=O)c2cc3occc3n12`, 612 s; with `Cc1cccc(Nc2nc(CC(=O)NCc3ccccc3OC(F)(F)F)cs2)n1`, 708 s.
As for `COc1cccc(-n2c(N3CCCC(C(=O)Nc4ccc(Cl)cc4)C3)nc3ccsc3c2=O)c1` (centres undefined), the RP-LC retention time came out at 1020 s.
Next, `CCCN1C(=O)c2cc(S(=O)(=O)N3CCCCC3CC)ccc2Oc2cccnc21` (centres undefined): 1260 s.
Next, `Cc1c(C(=O)N2CCCC2)cnn1-c1ccc(-c2nc(C(C)(C)C)no2)cn1`: 1010 s.
Next, `CC(C)(CO)NC(=O)Cc1ccc(NS(=O)(=O)c2ccccc2Br)cc1`: 664 s.
